Test results as given in US5250283A, “Organic contrast agent analog and method of making same” (priority 1992, dated 1993).
Where a name gives a salt, the structure may show the parent alone.

Assay: Thin layer chromatography of bile (metabolism) in rats
Type: in vivo
Conditions: rat bile, i.v.
Protocol: Lesser concentrations were found in the other tissues. Excretion of the two compounds were found only in bile with no compound detected in urine. In bile, TFA-IOP reached a maximum concentration of […] with the recovery of 40% of the injection dose during a 90 minute time period (see FIG. 6).

For `CCC(Cc1c(I)cc(I)c(NC(=O)C(F)(F)F)c1I)C(=O)O` (centres unmarked) [TFA-IOP, N-trifluoroacetyl-iopanoic acid], the “metabolism, TLC of bile” value was “a vast majority of the injected TFA-IOP was metabolized to a single metabolite” and the “nonmetabolized compound in bile” value (TLC) was “No nonmetabolized compound was found”.
